Earlier results, collected in patent publication US6465018B1, “Dietary supplement for increasing energy, strength, and immune function” (priority 1997, dated 2002).

System: individuals told to avoid physical exercise
Conditions: daily dosage of 3 grams

Q: Which intracellular creatine concentrations does the source give for `CN(CC(=O)O)C(=N)N` [creatine monohydrate] here?
A: raised intracellular creatine concentrations to effective levels
